The experiment has as its target T1, Signal transducer and activator of transcription 1-alpha/beta (Homo sapiens, UniProt P42224).
T1 sequence (P42224 whole entry): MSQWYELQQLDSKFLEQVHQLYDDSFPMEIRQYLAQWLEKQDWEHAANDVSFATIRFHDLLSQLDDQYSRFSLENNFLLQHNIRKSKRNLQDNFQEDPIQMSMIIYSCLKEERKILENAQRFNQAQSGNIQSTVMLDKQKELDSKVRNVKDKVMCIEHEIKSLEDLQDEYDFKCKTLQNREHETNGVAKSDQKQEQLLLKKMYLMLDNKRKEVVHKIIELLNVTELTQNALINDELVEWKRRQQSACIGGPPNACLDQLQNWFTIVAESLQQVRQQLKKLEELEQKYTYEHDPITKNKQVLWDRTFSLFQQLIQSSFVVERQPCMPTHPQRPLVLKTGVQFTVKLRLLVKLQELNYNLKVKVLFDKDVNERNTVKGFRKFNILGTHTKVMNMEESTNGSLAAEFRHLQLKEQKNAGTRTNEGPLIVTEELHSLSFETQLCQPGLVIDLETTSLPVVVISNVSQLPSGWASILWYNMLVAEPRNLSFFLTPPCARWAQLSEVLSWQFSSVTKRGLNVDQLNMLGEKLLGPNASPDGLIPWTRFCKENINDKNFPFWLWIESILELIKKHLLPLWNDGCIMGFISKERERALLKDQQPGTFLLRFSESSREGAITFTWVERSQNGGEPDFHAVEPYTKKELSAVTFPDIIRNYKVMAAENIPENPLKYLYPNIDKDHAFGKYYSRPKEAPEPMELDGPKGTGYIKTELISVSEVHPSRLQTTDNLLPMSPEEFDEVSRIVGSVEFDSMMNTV
Briefly: Inhibition of Stat1 (unknown origin) expressed in LPS/INF-gamma-stimulated human MONO-MAC-6 cells assessed as reduction in GAS dependent transcription activity measured after 4 hrs by luciferase reporter gene assay.

As for `CC(C)[C@H]1CC[C@]23C[C@@H]4[C@H](C)C(=O)[C@H]5O[C@]54[C@@]2(C)[C@@H](O)C(=O)[C@]13C`, the IC50 amounted to 7 µM.
The figure for `C=C[C@H]1CC[C@]23C[C@@H]4[C@H](C)[C@@H](O)[C@H]5O[C@@]45[C@@]2(C)CC(=O)[C@]13C` is greater than 50 µM.
The figure for `C=C[C@H]1CC[C@]23C[C@@H]4[C@H](C)C(=O)[C@H]5O[C@]54[C@@]2(C)C[C@H](O)[C@]13C` is 2 µM; for `CC(C)[C@H]1CC[C@]23C[C@@H]4[C@H](C)C(=O)[C@H]5O[C@]54[C@@]2(C)CC(=O)[C@]13C` it is 2 µM.

These data come from BindingDB's records for doi:10.1016/j.bmc.2016.11.016 (University of Kaiserslautern, 2017).
